{"source": "patent US12686704B2", "about": "“Procoagulant peptides and use thereof” (RAMBAM MED-TECH LTD., priority 2021, dated 2026)", "key": {"[1]": {"target": "lipidated TF, factor VIIa, factor X (Homo sapiens, UniProt P13726)", "sequence (P13726 33-295)": "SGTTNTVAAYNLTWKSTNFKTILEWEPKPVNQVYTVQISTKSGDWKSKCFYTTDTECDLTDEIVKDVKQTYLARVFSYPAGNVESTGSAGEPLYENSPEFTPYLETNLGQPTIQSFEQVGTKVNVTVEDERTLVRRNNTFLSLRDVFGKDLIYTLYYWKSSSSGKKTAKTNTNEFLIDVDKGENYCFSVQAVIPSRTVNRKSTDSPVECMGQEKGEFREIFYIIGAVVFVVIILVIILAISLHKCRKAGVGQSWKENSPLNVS", "sequence (P08709 61-212 partner limits assumed)": "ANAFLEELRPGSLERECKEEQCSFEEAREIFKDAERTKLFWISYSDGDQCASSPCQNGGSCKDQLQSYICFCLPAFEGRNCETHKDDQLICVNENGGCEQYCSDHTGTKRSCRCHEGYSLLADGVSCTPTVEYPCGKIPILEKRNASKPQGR", "sequence (P08709 213-466 partner limits assumed)": "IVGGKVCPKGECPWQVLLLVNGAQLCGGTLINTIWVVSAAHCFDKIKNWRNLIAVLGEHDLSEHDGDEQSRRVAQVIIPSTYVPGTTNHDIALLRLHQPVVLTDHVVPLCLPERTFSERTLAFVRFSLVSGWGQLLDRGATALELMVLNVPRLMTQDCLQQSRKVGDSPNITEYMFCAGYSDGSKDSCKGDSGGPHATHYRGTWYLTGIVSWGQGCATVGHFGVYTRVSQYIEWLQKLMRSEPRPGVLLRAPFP", "test": "Factor X activation assay of purified proteins (chromogenic substrate)", "format": "biochemical", "details": "peptides at 5 μg/ml and 10 μg/ml; compared to control; FIG. 1A", "procedure": "(§1) FIGS. 1A-1C include vertical bar graphs and thromboelastography (TEG) curves, showing that peptide 16 and peptide 16AC increase coagulation. Peptide 16 and 16AC were studied in an assay of purified proteins that included lipidated TF (4 nM), factor VIIa (40 nM), factor X (1.4 μM) and assay buffer. Factor X activated form (Xa) level was studied using a chromogenic substrate (1 mM). […] Bovine factor Xa diluted in the assay buffer was used to generate a standard curve. Without addition of TF (two right columns), no factor Xa was generated. […] (1B) A citrated pooled normal human blood sample (n=3) was left for 4 hours at room temperature in order to expose TF in bloods cells. Following this period, the peptides 16 and 16AC were added (5 μg/ml) along with calcium. […] Representative TEG curves are shown. (1C) The study presented in FIG. 1B was repeated 3 times with different pooled plasma. […] Peptide 16 (non-modified); peptide 16 comprising a C-terminal amid group (16A); peptide 16 comprising an N-terminal acetyl group (16C); and peptide 16 comprising a C-terminal amid group and an N-terminal acetyl group (16AC). In 1B: for control—SP min=11.2; R min=12.8; K min=3.8, Angle deg=52.0; and MA mm=47.9, for Peptide 16—SP min=5.2; R min=6.4; K min=2.8, Angle deg=63.3; and MA mm=50.4, and for Peptide 16AC—SP min=4.7; R min=5.6; K min=2.5, Angle deg=63.1; and MA mm=53.8.\nPeptides 16, 16C, 16A and 16AC were studied in an assay of purified proteins that included lipidated TF (0.004 μM), factor VIIa (0.04 μM), factor X (1.4 μM) and assay buffer. Factor X activated form (Xa) level was studied using a chromogenic substrate (1 mM). […] Bovine factor Xa diluted in the assay buffer was used to generate a standard curve. Without addition of TF (two right columns), no factor Xa was generated."}, "[2]": {"test_system": "citrated pooled normal human blood", "test": "Thromboelastography (TEG) of citrated pooled normal human blood", "details": "for Angle / K / MA (maximal amplitude) / R (time to clot formation) / SP / thrombus strength (maximal amplitude, MA), in words / time to clot formation (R), in words: 5 μg/ml with calcium; for Angle / K / MA (maximal amplitude) / R (time to clot formation) / SP: blood left 4 hours at room temperature, representative TEG curve FIG. 1B; for thrombus strength (maximal amplitude, MA), in words / time to clot formation (R), in words: vs control", "procedure": "as §1\nA citrated pooled normal human blood sample (n=3) was left for 4 hours at room temperature in order to expose TF in bloods cells. Following this period, the peptides 16 and 16AC were added (5 μg/ml) along with calcium. […] Representative images are shown (FIG. 1B). The study from B section was repeated 3 times with different pooled blood."}, "rat": {"test_system": "rat", "test": "Rat models of uncontrolled hemorrhage (spleen transection, liver laceration)", "format": "in vivo", "details": "for bleeding (blood loss): 150 μg/kg subcutaneous half an hour before surgery, I.V. 2 minutes following trauma, or topical, FIGS. 2A-2F; for bleeding (blood loss) / bleeding time: vs PBS control; for bleeding time: FIG. 2G", "procedure": "FIGS. 2A-2I include vertical bar graphs showing the effect of modified heparanase procoagulant peptides of the invention using different rat bleeding models. Two rat models of uncontrolled hemorrhage were applied. The models include spleen transection (2A) and liver laceration (2B). Blood loss was recorded every 2 minutes for the first 10 minutes after injury and at 5-minutes intervals thereafter for a total of 30 minutes. Shed blood were collected by placing reweighed gauze below the organ targeted for injury. The gauze was changed and weighed at the blood-loss intervals. Peptides 16 and 16AC were injected subcutaneously (150 μg/kg) half an hour before surgery (2A-2B) or intravenously (I.V.) in the saphenous vein (150 μg/kg) 2 minutes following the trauma (2C, 2D, 2H, and 2I). The third route of administration was topical application (150 μg/kg) on the incision site (2E-2F). The peptides were dissolved in phosphate-buffered saline (PBS) and added at a rate of a drop every 5 seconds. Control group (‘C’) was administered (either subcutaneously, intravenously, or topically) with the vehicle phosphate buffered saline (PBS). […] Mann-Whitney U test was used. Results represent mean±SD. *p<0.01, **p<0.001. In addition to Peptide 16 and Peptide 16AC, Peptide 16C, and Peptide 16A were also analyzed and compared in (2H and 2I).\nTwo rat models of uncontrolled hemorrhage were applied as previously described (Morgan et al., 2015; JAMA Surg.). The models included spleen transection (FIG. 2A) and liver laceration (FIG. 2B). Briefly, blood loss was recorded every 2 minutes for the first 10 minutes after injury and at 5-minute intervals thereafter for a total of 30 minutes. Shed blood were collected by placing reweighed gauze below the organ targeted for injury. The gauze was changed and weighed at the blood-loss intervals. Peptides 16 and 16AC were injected subcutaneous (150 μg/kg) half an hour before surgery (FIGS. 2A-2B) or intra-venous (I.V.) in the saphenous vein (150 μg/kg) 2 minutes following the trauma (FIGS. 2C-2D). The third route of administration was topical application (150 μg/kg) on the incision site (FIGS. 2E-2F). The peptides, dissolved in phosphate-buffered saline (PBS), were added at a rate of a drop every 5 seconds. Control (C) group was injected or topical applied with the vehicle phosphate buffered saline (PBS)."}, "[3]": {"test_system": "Hemophilic mice (VIII-KO mice)", "test": "Mouse-tail bleeding time model in hemophilic mice", "format": "in vivo", "details": "for bleeding time: 150, 225, 300, 375 μg/kg sub-cutis at the flank or topically on the tail, dose dependent, vs PBS control", "procedure": "FIGS. 3A-3D include vertical bar graphs showing that modified heparanase procoagulant peptides of the invention decrease bleeding in hemophilic mice. Hemophilic mice (VIII-KO mice; C57BL/6 background, strain name B6;129S4-F8tm1Kaz/J) were studied. (3A) Peptides 16 or 16AC were injected subcutaneously at the flank in doses 150, 225, 300, 375 μg/kg. A mouse-tail bleeding time model was performed. The peptides were dissolved in phosphate-buffered saline (PBS). Control (0) group was injected with the vehicle phosphate buffered saline (PBS). (3D) is identical to (3A) with the exception that peptide 16 C […] and peptide 16A […] were also administered in the disclosed doses. In a similar study, the peptides were topically applied on the tail immediately following the incision of the tail at a rate of a drop every 5 seconds (3B). […] Mann-Whitney U test was used. Results represent mean±SD. *p<0.05.\nHemophilic mice (VIII-KO mice; C57BL/6 background, strain name B6;129S4-F8tm1Kaz/J) were studied. Peptides 16 or 16AC were injected sub-cutis at the flank in doses 150, 225, 300, 375 μg/kg. A mouse-tail bleeding time model was performed. The peptides were dissolved in phosphate-buffered saline (PBS). Control (0) group was injected with the vehicle phosphate buffered saline (PBS) (FIGS. 3A and 3D). In a similar study, the peptides were topically applied on the tail immediately following the incision of the tail at a rate of a drop every 5 seconds (FIG. 3B)."}}, "data": [{"substance": "GSKRRKLRVYLHCT [Peptide 16, peptide comprising the procoagulant domain of heparanase, non-modified]", "values": [{"measurement": "activation of factor X (factor Xa level)", "setting": "[1]", "value": "significantly increased activation of factor X compared to control"}, {"measurement": "Angle", "setting": "[2]", "value": 63.3, "unit": "deg"}, {"measurement": "K", "setting": "[2]", "value": 2.8, "unit": "min"}, {"measurement": "MA (maximal amplitude)", "setting": "[2]", "value": 50.4, "unit": "mm"}, {"measurement": "R (time to clot formation)", "setting": "[2]", "value": 6.4, "unit": "min"}, {"measurement": "SP", "setting": "[2]", "value": 5.2, "unit": "min"}, {"measurement": "thrombus strength (maximal amplitude, MA), in words", "setting": "[2]", "value": "increased thrombus strength"}, {"measurement": "time to clot formation (R), in words", "setting": "[2]", "value": "significantly reduced the time to clot formation (R)"}, {"measurement": "bleeding (blood loss)", "setting": "rat", "value": "significant reduction"}, {"measurement": "bleeding time", "setting": "rat; 150 μg/kg", "value": "significant reduction"}, {"measurement": "bleeding time", "setting": "[3]", "value": "significant decrease in bleeding time"}]}, {"substance": "acetyl-GSKRRKLRVYLHCT-amid (Ac-GSKRRKLRVYLHCT-NH2) [Peptide 16AC, peptide 16 comprising a C-terminal amid group and an N-terminal acetyl group]", "values": [{"measurement": "activation of factor X (factor Xa level)", "setting": "[1]", "value": "significantly increased activation of factor X compared to control"}, {"measurement": "Angle", "setting": "[2]", "value": 63.1, "unit": "deg"}, {"measurement": "K", "setting": "[2]", "value": 2.5, "unit": "min"}, {"measurement": "MA (maximal amplitude)", "setting": "[2]", "value": 53.8, "unit": "mm"}, {"measurement": "R (time to clot formation)", "setting": "[2]", "value": 5.6, "unit": "min"}, {"measurement": "SP", "setting": "[2]", "value": 4.7, "unit": "min"}, {"measurement": "thrombus strength (maximal amplitude, MA), in words", "setting": "[2]", "value": "increased thrombus strength"}, {"measurement": "time to clot formation (R), in words", "setting": "[2]", "value": "significantly reduced the time to clot formation (R)"}, {"measurement": "clot formation compared to peptide 16", "setting": "[2]; 5 μg/ml, repeated 3 times with different pooled blood, FIG. 1C", "value": "significant better effect to increase clot formation compared to peptide 16"}, {"measurement": "bleeding (blood loss)", "setting": "rat", "value": "significant reduction"}, {"measurement": "effect in reducing the bleeding, comparison between peptides", "setting": "rat; 150 μg/kg, FIGS. 2A-2I (16C and 16A: I.V., FIGS. 2H-2I)", "value": "significantly better effect in reducing the bleeding compared to peptide 16"}, {"measurement": "bleeding time", "setting": "rat; 150 μg/kg", "value": "significant reduction"}, {"measurement": "bleeding time", "setting": "[3]", "value": "significant decrease in bleeding time"}, {"measurement": "bleeding time reduction, comparison between peptides", "setting": "[3]; subcutaneous 150-375 μg/kg, FIG. 3D", "value": "improved bleeding reduction"}]}]}
